Row | melting point [°C] | Structure (SMILES)
1 | 214 | COc1cc(NS(=O)(=O)c2ccc(Cl)s2)c(C(=O)Nc2ccc(S(=O)(=O)N(C)Cc3cccnc3)cc2)cc1OC.Cl
2 | 246 | O=C(Nc1ccc(S(=O)(=O)N2CCSCC2)cc1)c1cc(Cl)ccc1NS(=O)(=O)c1ccc(Cl)cc1 [Example 15, 5-Chloro-2-(4-chloro-phenylsulfonylamino)-N-(4-(thiomorpholine-4-sulfonyl)-phenyl)-benzamide]
3 | 214 | Cc1ccc(S(=O)(=O)Nc2ccc(Cl)cc2C(=O)Nc2ccc(S(=O)(=O)N3CCOCC3)cc2)cc1 [Example 57, 5-Chloro-N-(4-(morpholine-4-sulfonyl)-phenyl)-2-(4-methyl-phenylsulfonylamino)-benzamide]
4 | 182 | O=C(Nc1ccc(S(=O)(=O)N2CCS(=O)(=O)CC2)cc1)c1cc(Cl)ccc1NS(=O)(=O)c1ccc(Cl)cc1 [Example 92, 5-Chloro-2-(4-chloro-phenylsulfonylamino)-N-(4-(1,1-dioxo-thiomorpholine-4-sulfonyl)-phenyl)-benzamide]
